# In US20230364032A1, “USE OF 2-HOBA TO TREAT ATHEROSCLEROSIS” (Vanderbilt University, priority 2020, published 2023):
# Values joined by “and” are separate entries in the source; they are usually repeats but may differ in a detail not shown here. Equal values may be shown once. “Also recorded” adds a separate entry of the source.
# Columns and labels:
# [1] = test system: peritoneal macrophages; assay: Macrophage cytokine mRNA by real time PCR (oxidized LDL or H2O2); assay type: cell-based, mouse
# Experimental: […] Apoptotic cells were then detected by Annexin V staining and flow cytometry. […] (6A to 6H) Data are presented as mean±SEM from three independent experiments, ***p<0.001, One-way ANOVA with Bonferroni's post hoc test.
# Total RNA was isolated and purified, cDNA was synthesized, and the mRNA levels of IL-1β, IL-6 and TNF-α were measured by real-time PCR. The data are from three independent experiments. *p<0.05, **p<0.01, ***p<0.001, One-way ANOVA (Bonferroni's post hoc test).
# Total RNA was extracted and purified using Aurum Total RNA kit (Bio-Rad) according to the manufacturer's protocol. Complementary DNA was synthesized with iScript reverse transcriptase (Bio-Rad). Relative quantitation of the target mRNA was performed using specific primers, SYBR probe (Bio-Rad), and iTaqDNA polymerase (Bio-Rad) on IQ5 Thermocylcer (Bio-Rad) and normalized with 18S, as described earlier. 18S, IL-1[…] and TNF-[…] primers used were as described earlier^67.
# [2] = test system: Apoe−/− macrophage foam cells; assay: Capacity of HDL from treated mice to reduce macrophage cholesterol; assay type: cell-based, mouse; conditions: for efficiency of HDL at reducing cholesterol stores in Apoe−/− macrophage foam cells: HDL isolated from treated Ldlr−/− mice, 25 μg protein/ml, 24 h
# Experimental: FIGS. 7A-7G show the effects of 2-HOBA on MDA-HDL adducts and HDL function. (7A) The levels or MDA adducts were measured by ELISA in HDL isolated from Ldlr mice treated as described in FIG. 1. Data are presented as mean±SEM (N=8 pet group), *** p<0.001, One-way ANOVA with Bonferroni's post hoc test. (7B) Western blots of apoAl and MDA-apoAl in HDL isolated from plasma by immunoprecipitation using primary anti-apoAl antibody. Ldlf mice were treated as described In FIG. 1 and apoAl and MDA-apoAl from Ldlr mice consuming a chow diet are included f0t comparison. (7C) Quantitation using lmageJ software of the mean density ratio (arbitrary units) of MDA-apoAl to apoAl detected by Western blotting (7B). (7D The HDL was isolated from the plasma of Ld/r-mice consuming a western diet for 16 weeks and treated with 2-HOBA or 4-HOBA or vehicle. Cholesterol enriched macrophages were incubated for 24 h with HDL (25 μg protein/ml). and the % reduction in cellular cholesterol content measured. Data presented as mean±SEM. N=7 per group, *p<0.05.**p<0.01, One-way ANOVA with Bonferroni's post hoc test (7E) The MDA adducts were measured by ELISA in HDL isolated from control or FH subjects before and after LDL apheresis. N=7 or 8, ***p<0.001, One-way ANOVA with Bonferroni's post hoc test. (7F) The MDA-Lysyl crosslink content in HDL from control or FH subjects (n=6 per group), p=0.02, Mann-Whitney test (7G) The capacity of HDL from control or FH subjects pre and post LDL apheresis (n=7 per group) to reduce the cholesterol content of apoE macrophages.
# HDL was isolated from mouse plasma using HDL Purification Kit (Cell BioLabs, Inc.) following the manufacturer's protocol. Briefly, apoB containing lipoproteins and HDL were sequentially precipitated with dextran sulfate. The HDL was then resuspended and washed. After removing the dextran sulfate, the HDL was dialyzed against PBS. […] Cellular cholesterol was measured before and after incubation with HDL using an enzymatic cholesterol assay as described^61.
# [3] = test system: atherosclerotic lesions of Ldlr−/− mice; assay: Lesion apoptosis (TUNEL) and efferocytosis; assay type: in vivo, mouse
# Experimental: Cell apoptosis was induced as indicated and detected by fluorescent labeled Annexin V staining and quantitated by either Flow Cytometry (BD 5 LSRII) or counting Annexin V positive cells in images captured under a fluorescent microscope. The apoptotic cells in atherosclerotic lesions were measured by TUNEL staining of cross-sections of atherosclerotic proximal aortas as previously described^30. The TUNEL positive cells not associated with live macrophages were considered free apoptotic cells and macrophage-associated apoptotic cells were considered phagocytosed as a measure of lesion efferocytosis as previously described^30.
# [4] = test system: primary macrophages; assay: H2O2-induced apoptosis of macrophages (Annexin V); assay type: cell-based, mouse; conditions: 250 μM H2O2, 24 h, 500 μM compound; compared to vehicle or 4-HOBA
# Experimental: (6A and 6B) Mouse aortic endothelial cells (6A) or primary macrophages (6B) were incubated for 24 h with 250 μM H2O2 alone or with either 4-HOBA or 2-HOBA (500 μM). Apoptotic cells were then detected by Annexin V staining and flow cytometry. (6C to 6H) The mRNA levels of IL-1β, IL-6, and TNF-α were analyzed by real time PCR in the peritoneal macrophages incubated for 24 h with either oxidized LDL (6C-6E) or 250 μM H2O2 (6F-6H) alone or with either 4-HOBA or 2-HOBA (500 μM). (6A to 6H) Data are presented as mean±SEM from three independent experiments, ***p<0.001, One-way ANOVA with Bonferroni's post hoc test.
# Peritoneal macrophages were isolated from mice 72 hours post injection of 3% thioglycollate and maintained in DMEM plus 10% fetal bovine serum (FBS, Gibco) as previously described^30. Human aortic endothelial cells (HAECs) were obtained from Lonza and maintained in endothelial cell basal medium-2 plus 1% FBS and essential growth factors (Lonza).
# Cell apoptosis was induced as indicated and detected by fluorescent labeled Annexin V staining and quantitated by either Flow Cytometry (BD 5 LSRII) or counting Annexin V positive cells in images captured under a fluorescent microscope. The apoptotic cells in atherosclerotic lesions were measured by TUNEL staining of cross-sections of atherosclerotic proximal aortas as previously described^30. […]
smiles,measurement,setting,value
"NCc1ccccc1O [2-HOBA, 2-hydroxybenzylamine]","levels of IL-1β, IL-6, and TNF-α mRNA","[1]; 500 μM 2-HOBA in the presence of H2O2 (100 μM, 24 hours)",significantly reduced
same,"macrophage inflammatory response: mRNA levels of IL-1β, IL-6, and TNF-α","[1]; oxidized LDL, 24 h, 500 μM",significantly reduced
same,capacity of mouse HDL to reduce macrophage cholesterol stores,[2]; HDL from treated Ldlr−/− mice,increased; also recorded: enhanced capacity
same,efficiency of HDL at reducing cholesterol stores in Apoe−/− macrophage foam cells,[2]; versus 4-HOBA treated mice,1.7 fold
same,efficiency of HDL at reducing cholesterol stores in Apoe−/− macrophage foam cells,[2]; versus vehicle treated mice,2.2 fold
same,efferocytosis and cell death in atherosclerotic lesions,[3]; Ldlr−/− mice,enhanced efferocytosis; also recorded: prevents cell death and increases efferocytosis
same,reduction of number of TUNEL positive cells in proximal aortic lesions,"[3]; Ldlr−/− mice, compared to 4-HOBA",72.4%
same,reduction of number of TUNEL positive cells in proximal aortic lesions,"[3]; Ldlr−/− mice, compared to vehicle",72% and 72.9%
same,increase of TUNEL positive cells not associated with macrophages,[3]; lesions of mice treated with 4-HOBA versus 2-HOBA,2.0 fold
same,increase of TUNEL positive cells not associated with macrophages,[3]; lesions of mice treated with vehicle versus 2-HOBA,1.9 fold
same,"number of apoptotic cells, macrophage cultures",[4],markedly decreased
